Assay results reported in ChEMBL document CHEMBL6083188, “Recent contributions of pyridazine as a privileged scaffold of anticancer agents in medicinal chemistry: An updated review” (Bioorg Med Chem, 2024).
≈ marks a conversion by molar mass, not a printed value. Blank lines part the entries; values can stand above or below the compound they belong to.

What was measured:
SNB-75 = experiment: Antiproliferative activity against human SNB-75 cells assessed as reduction in cell growth incubated for 48 hrs by SRB assay; type: functional, cell-based; details: SNB-75, 48 h
[1] = target: Phosphatidylinositol 4,5-bisphosphate 3-kinase catalytic subunit alpha isoform (Homo sapiens, UniProt P42336); experiment: Inhibition of PI3Kalpha (unknown origin)
[2] = target: Phosphatidylinositol 4,5-bisphosphate 3-kinase catalytic subunit beta isoform (Homo sapiens, UniProt P42338); experiment: Inhibition of PI3Kbeta (unknown origin)
[3] = target: Phosphatidylinositol 4,5-bisphosphate 3-kinase catalytic subunit gamma isoform (Homo sapiens, UniProt P48736); experiment: Inhibition of PI3Kgamma (unknown origin)
[4] = target: T1, Phosphatidylinositol 4,5-bisphosphate 3-kinase catalytic subunit delta isoform (Homo sapiens, UniProt O00329); experiment: Inhibition of PI3Kdelta (unknown origin)
T1 sequence (O00329 whole entry): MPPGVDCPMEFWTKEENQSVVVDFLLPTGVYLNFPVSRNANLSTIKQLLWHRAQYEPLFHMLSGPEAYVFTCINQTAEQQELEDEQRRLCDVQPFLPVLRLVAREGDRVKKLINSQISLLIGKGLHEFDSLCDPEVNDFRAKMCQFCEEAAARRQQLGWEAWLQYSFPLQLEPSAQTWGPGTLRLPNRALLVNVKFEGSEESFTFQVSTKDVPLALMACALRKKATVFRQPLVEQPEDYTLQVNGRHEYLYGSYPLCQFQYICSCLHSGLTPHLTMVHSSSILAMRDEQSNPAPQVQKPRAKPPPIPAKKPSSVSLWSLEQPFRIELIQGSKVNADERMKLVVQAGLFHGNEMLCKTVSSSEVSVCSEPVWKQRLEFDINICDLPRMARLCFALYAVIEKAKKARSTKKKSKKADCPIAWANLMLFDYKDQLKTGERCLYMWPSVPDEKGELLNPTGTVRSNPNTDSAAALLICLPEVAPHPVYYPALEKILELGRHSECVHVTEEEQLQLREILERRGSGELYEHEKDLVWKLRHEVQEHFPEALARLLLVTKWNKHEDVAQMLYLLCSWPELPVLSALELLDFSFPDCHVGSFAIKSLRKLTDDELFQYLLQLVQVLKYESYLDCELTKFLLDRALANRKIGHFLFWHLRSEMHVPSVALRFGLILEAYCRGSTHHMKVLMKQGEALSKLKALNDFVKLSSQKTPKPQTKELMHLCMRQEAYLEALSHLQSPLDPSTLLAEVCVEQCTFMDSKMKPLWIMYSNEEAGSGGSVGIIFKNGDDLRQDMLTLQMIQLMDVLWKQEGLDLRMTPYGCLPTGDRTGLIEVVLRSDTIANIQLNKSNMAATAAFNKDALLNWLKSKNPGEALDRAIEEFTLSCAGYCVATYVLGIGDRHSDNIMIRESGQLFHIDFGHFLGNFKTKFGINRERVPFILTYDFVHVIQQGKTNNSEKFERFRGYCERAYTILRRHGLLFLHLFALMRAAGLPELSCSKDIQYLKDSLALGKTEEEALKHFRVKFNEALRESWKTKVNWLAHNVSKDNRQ

MGC-803 = experiment: Antitumor activity against human MGC-803 cells xenografted in nude mouse assessed as tumor inhibition at 20 mg/kg, ip administered once every two days for 21 days relative to control; type: functional; design: scale not given: the % may be the effect or the level left; details: time 21 day
PC-3 [5] = experiment: cells; details: Homo sapiens, PC-3, 72 h
Description: Cytotoxicity against human PC-3 cells assessed as inhibition of cell growth incubated for 72 hrs by MTT assay

MDA-MB-231 = experiment: cells; details: Homo sapiens
Description: Antiproliferative activity against human MDA-MB-231 cells assessed as reduction in cell viability

T47D = experiment: cells; details: Homo sapiens
Description: Antiproliferative activity against human T47D cells assessed as reduction in cell viability

MCF7 [6] = experiment: Cytotoxicity against human MCF7 cells assessed as reduction in cell viability measured for 48 hrs by MTT assay; type: functional, cell-based; details: MCF7, 48 h
HCT-116 [7] = experiment: Cytotoxicity against human HCT-116 cells assessed as reduction in cell viability measured for 48 hrs by MTT assay; type: functional, cell-based; details: HCT-116, 48 h
HepG2 = experiment: Cytotoxicity against human HepG2 cells assessed as reduction in cell viability measured for 48 hrs by MTT assay; type: functional, cell-based; details: HepG2, 48 h
PC-3 [8] = experiment: Cytotoxicity against human PC-3 cells assessed as reduction in cell viability measured for 48 hrs by MTT assay; type: functional, cell-based; details: PC-3, 48 h
[9] = target: Hepatocyte growth factor receptor (Homo sapiens, UniProt P08581); experiment: Inhibition of c-Met (unknown origin)
A549 = experiment: Cytotoxicity against human A549 cells assessed as reduction in cell growth incubated for 5 days by MTT assay; type: functional, cell-based; details: A549, 120 h
MCF7 [10] = experiment: Cytotoxicity against human MCF7 cells assessed as reduction in cell growth incubated for 5 days by MTT assay; type: functional, cell-based; details: MCF7, 120 h
HeLa = experiment: Cytotoxicity against human HeLa cells assessed as reduction in cell growth incubated for 5 days by MTT assay; type: functional, cell-based; details: 120 h
Aurora kinase B = Aurora kinase B (Homo sapiens, UniProt Q96GD4); experiment: Inhibition of Aurora B (unknown origin)
HCT-116 [11] = experiment: Cytotoxicity against human HCT-116 cells assessed as reduction in cell viability incubated for 72 hrs by MTT assay; type: functional, cell-based; details: HCT-116, 72 h
[12] = target: Epidermal growth factor receptor (Homo sapiens, UniProt P00533); experiment: Inhibition of EGFR (unknown origin) extracted from insect cells by ELISA method; type: cell-free, Insect cell
[13] = Antiproliferative activity against mouse Ba/F3 EML4-ALK cells assessed as inhibition of cell growth; type: functional, cell-based
[14] = Antiproliferative activity against mouse Ba/F3 EML4-ALK-G1202R-L1196M cells assessed as inhibition of cell growth; type: functional, cell-based

Sequence of Phosphatidylinositol 4,5-bisphosphate 3-kinase catalytic subunit alpha isoform (P42336 whole entry, canonical isoform): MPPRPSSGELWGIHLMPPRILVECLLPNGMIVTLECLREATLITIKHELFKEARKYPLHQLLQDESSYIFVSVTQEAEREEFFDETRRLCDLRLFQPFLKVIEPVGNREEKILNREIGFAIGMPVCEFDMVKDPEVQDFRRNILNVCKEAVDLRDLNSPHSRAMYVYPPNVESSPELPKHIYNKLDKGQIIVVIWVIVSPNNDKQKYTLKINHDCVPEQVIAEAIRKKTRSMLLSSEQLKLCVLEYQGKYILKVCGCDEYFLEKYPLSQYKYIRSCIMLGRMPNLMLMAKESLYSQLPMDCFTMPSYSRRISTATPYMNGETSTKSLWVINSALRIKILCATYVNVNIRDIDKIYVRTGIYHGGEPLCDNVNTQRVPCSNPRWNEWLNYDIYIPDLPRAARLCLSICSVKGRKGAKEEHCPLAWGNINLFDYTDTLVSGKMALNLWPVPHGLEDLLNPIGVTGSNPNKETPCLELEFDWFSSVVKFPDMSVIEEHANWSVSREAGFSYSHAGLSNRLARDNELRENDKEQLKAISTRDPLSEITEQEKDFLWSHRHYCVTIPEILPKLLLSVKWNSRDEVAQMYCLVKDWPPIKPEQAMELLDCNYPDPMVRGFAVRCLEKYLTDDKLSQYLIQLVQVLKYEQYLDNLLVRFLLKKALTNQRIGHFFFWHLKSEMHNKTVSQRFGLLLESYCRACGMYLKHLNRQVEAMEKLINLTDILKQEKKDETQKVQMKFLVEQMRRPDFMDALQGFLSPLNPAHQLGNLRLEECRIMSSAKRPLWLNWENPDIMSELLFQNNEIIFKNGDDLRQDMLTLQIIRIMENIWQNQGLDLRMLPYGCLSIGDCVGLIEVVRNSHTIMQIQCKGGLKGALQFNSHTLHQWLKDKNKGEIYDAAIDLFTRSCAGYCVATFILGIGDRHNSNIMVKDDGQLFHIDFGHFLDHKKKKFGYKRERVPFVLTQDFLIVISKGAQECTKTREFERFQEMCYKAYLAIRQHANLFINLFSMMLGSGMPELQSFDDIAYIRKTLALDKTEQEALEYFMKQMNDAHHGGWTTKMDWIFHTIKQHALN
Sequence of Aurora kinase B (Q96GD4 whole entry): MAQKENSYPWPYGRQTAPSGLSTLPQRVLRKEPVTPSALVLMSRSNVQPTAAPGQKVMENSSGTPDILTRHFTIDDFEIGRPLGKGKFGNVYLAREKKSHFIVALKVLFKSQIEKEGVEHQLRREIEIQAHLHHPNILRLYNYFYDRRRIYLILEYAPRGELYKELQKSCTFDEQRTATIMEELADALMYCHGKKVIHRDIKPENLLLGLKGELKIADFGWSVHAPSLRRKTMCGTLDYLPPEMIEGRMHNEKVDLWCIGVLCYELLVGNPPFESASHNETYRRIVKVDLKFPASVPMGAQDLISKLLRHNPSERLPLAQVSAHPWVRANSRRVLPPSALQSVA
Sequence of Hepatocyte growth factor receptor (P08581 whole entry): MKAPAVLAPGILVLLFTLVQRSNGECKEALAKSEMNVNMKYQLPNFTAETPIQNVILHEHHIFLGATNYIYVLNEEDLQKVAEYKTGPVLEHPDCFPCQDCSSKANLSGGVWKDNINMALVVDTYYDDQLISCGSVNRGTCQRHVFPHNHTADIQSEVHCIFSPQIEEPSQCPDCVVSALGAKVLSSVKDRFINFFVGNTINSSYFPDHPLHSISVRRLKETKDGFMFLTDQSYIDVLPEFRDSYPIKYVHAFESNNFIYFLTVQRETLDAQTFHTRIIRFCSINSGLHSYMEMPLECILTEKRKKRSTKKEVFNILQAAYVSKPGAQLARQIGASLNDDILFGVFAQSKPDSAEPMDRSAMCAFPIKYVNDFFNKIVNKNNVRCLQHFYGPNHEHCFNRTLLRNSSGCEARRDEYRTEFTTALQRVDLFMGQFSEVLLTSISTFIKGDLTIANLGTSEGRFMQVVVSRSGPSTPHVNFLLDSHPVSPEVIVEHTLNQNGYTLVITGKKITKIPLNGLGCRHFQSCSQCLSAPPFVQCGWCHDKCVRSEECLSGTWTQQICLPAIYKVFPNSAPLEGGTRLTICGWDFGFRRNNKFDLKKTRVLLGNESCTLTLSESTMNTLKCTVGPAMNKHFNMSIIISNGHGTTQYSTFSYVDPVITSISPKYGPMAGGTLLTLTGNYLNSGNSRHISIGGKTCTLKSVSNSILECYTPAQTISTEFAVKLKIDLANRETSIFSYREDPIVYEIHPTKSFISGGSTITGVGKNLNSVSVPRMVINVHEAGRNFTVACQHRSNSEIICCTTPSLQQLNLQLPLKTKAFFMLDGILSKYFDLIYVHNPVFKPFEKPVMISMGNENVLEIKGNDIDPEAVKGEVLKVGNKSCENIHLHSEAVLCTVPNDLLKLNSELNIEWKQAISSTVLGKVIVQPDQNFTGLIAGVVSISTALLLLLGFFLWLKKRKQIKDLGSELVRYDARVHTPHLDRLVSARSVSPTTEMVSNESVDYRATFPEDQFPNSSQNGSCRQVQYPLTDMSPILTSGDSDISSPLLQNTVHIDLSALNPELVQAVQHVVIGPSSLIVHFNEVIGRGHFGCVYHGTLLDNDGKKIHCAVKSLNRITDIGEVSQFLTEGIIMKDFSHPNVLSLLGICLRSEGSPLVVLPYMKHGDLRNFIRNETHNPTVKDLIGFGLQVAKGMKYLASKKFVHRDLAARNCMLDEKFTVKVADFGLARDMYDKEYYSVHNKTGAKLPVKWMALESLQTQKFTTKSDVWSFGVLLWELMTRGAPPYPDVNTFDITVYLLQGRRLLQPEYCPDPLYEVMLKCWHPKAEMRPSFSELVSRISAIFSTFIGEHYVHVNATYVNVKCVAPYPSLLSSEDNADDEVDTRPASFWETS
Sequence of Epidermal growth factor receptor (P00533 whole entry): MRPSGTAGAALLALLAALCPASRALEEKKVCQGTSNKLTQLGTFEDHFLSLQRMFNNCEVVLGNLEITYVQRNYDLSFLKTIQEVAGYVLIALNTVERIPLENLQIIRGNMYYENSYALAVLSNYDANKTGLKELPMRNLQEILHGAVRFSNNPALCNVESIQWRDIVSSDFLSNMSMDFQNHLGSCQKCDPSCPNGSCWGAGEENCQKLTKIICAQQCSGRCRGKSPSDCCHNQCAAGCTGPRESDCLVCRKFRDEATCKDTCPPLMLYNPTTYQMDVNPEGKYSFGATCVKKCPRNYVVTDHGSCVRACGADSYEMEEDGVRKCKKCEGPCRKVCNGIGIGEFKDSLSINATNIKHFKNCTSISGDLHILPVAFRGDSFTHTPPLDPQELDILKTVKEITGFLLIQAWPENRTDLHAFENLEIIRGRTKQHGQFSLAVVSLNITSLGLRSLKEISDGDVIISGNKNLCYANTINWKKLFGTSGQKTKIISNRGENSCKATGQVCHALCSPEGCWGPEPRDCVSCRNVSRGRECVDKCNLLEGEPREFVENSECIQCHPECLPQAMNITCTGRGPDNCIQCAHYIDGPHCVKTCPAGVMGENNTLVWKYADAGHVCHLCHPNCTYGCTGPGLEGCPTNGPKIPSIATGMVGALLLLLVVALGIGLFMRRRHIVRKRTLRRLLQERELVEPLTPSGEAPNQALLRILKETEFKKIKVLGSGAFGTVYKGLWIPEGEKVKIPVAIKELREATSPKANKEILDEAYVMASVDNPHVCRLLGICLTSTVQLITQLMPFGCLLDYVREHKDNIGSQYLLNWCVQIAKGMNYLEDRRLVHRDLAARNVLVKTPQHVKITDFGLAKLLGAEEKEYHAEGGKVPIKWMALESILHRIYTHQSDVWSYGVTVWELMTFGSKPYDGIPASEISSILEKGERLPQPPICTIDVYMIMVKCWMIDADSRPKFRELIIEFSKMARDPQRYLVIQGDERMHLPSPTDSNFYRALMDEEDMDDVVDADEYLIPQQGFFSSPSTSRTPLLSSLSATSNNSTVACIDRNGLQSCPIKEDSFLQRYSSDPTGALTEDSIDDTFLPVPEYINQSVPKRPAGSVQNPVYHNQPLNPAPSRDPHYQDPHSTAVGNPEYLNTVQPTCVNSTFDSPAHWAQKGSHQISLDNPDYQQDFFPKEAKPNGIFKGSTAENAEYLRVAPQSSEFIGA
Sequence of Phosphatidylinositol 4,5-bisphosphate 3-kinase catalytic subunit beta isoform (P42338 whole entry, canonical isoform): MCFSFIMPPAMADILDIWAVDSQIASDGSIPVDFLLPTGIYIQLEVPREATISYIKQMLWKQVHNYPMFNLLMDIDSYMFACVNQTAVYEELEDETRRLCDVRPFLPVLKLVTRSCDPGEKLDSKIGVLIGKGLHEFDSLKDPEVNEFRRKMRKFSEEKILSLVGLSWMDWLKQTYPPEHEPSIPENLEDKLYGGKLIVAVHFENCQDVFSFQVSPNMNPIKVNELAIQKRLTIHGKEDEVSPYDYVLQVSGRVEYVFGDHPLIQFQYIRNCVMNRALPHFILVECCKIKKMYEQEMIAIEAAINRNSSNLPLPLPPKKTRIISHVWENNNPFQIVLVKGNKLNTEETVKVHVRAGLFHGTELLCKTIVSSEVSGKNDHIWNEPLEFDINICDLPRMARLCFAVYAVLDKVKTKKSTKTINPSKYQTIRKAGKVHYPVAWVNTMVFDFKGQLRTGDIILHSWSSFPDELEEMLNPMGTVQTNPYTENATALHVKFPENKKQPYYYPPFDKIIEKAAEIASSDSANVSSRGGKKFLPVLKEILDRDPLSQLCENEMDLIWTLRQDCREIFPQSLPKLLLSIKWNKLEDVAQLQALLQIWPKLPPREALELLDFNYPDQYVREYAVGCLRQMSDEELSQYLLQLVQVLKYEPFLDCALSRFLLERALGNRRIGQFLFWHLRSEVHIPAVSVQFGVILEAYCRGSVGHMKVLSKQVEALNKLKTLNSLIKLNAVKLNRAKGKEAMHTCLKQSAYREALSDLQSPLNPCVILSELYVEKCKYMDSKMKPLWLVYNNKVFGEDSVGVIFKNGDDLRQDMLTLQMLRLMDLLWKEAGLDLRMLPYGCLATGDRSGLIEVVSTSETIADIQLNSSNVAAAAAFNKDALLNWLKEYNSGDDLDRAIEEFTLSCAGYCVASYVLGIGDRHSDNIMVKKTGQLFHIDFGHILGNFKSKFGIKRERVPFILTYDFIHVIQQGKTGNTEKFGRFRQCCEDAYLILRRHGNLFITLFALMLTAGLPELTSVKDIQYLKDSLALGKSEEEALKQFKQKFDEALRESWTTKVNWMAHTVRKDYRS

SMILES: CCN(CC)CCNc1cc(-c2ccc(Br)cc2)nn2c(=O)c3ccccc3nc12
- Activity (MGC-803): 55.9%

SMILES: O=C1CCC(c2ccc(NC(=S)Nc3ccccc3)cc2)=NN1c1ccccc1
- IC50 (PC-3 [5]): 7830 nM

SMILES: Oc1ccc(/C=N/Nc2nn3c(C(F)(F)F)nnc3c3ccccc23)cc1
- IC50 (MCF7 [6]): 8040 nM
- IC50 (HCT-116 [7]): 5700 nM
- IC50 (HepG2): 11200 nM
- IC50 (PC-3 [8]): 4250 nM

SMILES: COC(=O)C(CC(C)(C)C)NC(=O)CNC(=O)COc1nn(-c2ccccc2)c(=O)c2ccccc12 (stereo not drawn)
- IC50 (HCT-116 [11]): 1360 nM

SMILES: C[C@H]1CNC(=O)c2cnn3ccc(nc23)N[C@H](C)c2cc(F)ccc2O1 [REPOTRECTINIB]
- IC50 [13]: 164 nM
- IC50 [14]: 208 nM

SMILES: CNC(=O)c1cc(Oc2ccc(NC(=O)Nc3ccc(Cl)c(C(F)(F)F)c3)cc2)ccn1 [SORAFENIB]
- IC50 (PC-3 [5]): 11500 nM

The next lines start with results.

- IC50 [1]: 4390 nM
- IC50 [2]: 13600 nM
- IC50 [3]: 12500 nM
- IC50 [4]: 3110 nM
SMILES: CCOC(=O)c1nn(-c2ccccc2)c(=O)c2c(N)c(C#N)c(-c3cccs3)cc12
- IC50 (SNB-75): 3.7 µg/mL (≈ 8.88 µM)

- IC50 (MDA-MB-231): 900 nM
- IC50 (T47D): 430 nM
SMILES: O=C(NCC1CCOCC1)c1cc(C(F)(F)F)c(N2CCOCC2)nn1

- IC50 [9]: 90 nM
SMILES: Cc1cc(Oc2ccc(NC(=O)c3sc(-c4ccccn4)nc3C)cc2)c2nncn2n1
- IC50 (A549): 1060 nM
- IC50 (MCF7 [10]): 1200 nM
- IC50 (HeLa): 2730 nM

- IC50 (Aurora kinase B): 6 nM
SMILES: c1cc2[nH]ncc2cc1-c1cnc2ccc(OC[C@H]3CNCCO3)nn12

- IC50 [12]: 650 nM
SMILES: COc1cccc(C2=NN(c3ccc(-c4ccccc4)nn3)C(c3ccc(F)c(OC)c3)C2)c1 (stereo not drawn)
